Measurements reported in ChEMBL document CHEMBL5136983, “How the structural properties of the indole derivatives are important in kinase targeted drug design?: A case study on tyrosine kinase inhibitors” (Bioorg Med Chem, 2022).
One block for each molecule: values may come before it.

How the values were obtained:
[1] = Inhibition of v-src (unknown origin)
[2] = target: T1, Epidermal growth factor receptor (Homo sapiens, UniProt P00533)
Description: Inhibition of EGFR derived from human A-431 cell membrane vesicles using copolymer of Glu/Ala/Tyr as substrate by scintillation counting method

[3] = Inhibition of PDGF-BB-stimulated PDGFR autophosphorylation in mouse Swiss-3T3 cells treated for 2 hrs followed by PDGF-BB stimulation measured after 10 mins by immunoblot analysis; type: cell-based
HeLa = assay: Antiproliferative activity against human HeLa cells assessed as cell growth inhibition; type: functional, cell-based
A549 = assay: Antiproliferative activity against human A549 cells assessed as cell growth inhibition; type: functional, cell-based
SW480 = assay: Antiproliferative activity against human SW480 cells assessed as cell growth inhibition; type: functional, cell-based
[4] = Inhibition of PDGFR (unknown origin); design: species or system Homo sapiens
[5] = target: T1, Epidermal growth factor receptor; assay: Inhibition of EGFR in human A-431 cell membrane vesicles using phospholipase C-gamma-1 as substrate incubated for 10 mins by scintillation counter method; type: cell membranes, Membrane vesicle
[6] = target: T2, Proto-oncogene tyrosine-protein kinase Src (Homo sapiens, UniProt P12931); assay: Inhibition of p60 c-src (unknown origin)
[7] = target: T2, Proto-oncogene tyrosine-protein kinase Src; assay: Inhibition of src (unknown origin)
[8] = target: T1, Epidermal growth factor receptor; assay: Inhibition of EGFR derived from human A-431 cells using copolymer of Glu/Ala/Tyr as substrate by scintillation counting method
[9] = Antiproliferative activity against mouse Swiss-3T3 cells assessed as cell growth inhibition incubated for 72 hrs by cell counter method; type: toxicity, cell-based

T1 sequence (P00533 whole entry): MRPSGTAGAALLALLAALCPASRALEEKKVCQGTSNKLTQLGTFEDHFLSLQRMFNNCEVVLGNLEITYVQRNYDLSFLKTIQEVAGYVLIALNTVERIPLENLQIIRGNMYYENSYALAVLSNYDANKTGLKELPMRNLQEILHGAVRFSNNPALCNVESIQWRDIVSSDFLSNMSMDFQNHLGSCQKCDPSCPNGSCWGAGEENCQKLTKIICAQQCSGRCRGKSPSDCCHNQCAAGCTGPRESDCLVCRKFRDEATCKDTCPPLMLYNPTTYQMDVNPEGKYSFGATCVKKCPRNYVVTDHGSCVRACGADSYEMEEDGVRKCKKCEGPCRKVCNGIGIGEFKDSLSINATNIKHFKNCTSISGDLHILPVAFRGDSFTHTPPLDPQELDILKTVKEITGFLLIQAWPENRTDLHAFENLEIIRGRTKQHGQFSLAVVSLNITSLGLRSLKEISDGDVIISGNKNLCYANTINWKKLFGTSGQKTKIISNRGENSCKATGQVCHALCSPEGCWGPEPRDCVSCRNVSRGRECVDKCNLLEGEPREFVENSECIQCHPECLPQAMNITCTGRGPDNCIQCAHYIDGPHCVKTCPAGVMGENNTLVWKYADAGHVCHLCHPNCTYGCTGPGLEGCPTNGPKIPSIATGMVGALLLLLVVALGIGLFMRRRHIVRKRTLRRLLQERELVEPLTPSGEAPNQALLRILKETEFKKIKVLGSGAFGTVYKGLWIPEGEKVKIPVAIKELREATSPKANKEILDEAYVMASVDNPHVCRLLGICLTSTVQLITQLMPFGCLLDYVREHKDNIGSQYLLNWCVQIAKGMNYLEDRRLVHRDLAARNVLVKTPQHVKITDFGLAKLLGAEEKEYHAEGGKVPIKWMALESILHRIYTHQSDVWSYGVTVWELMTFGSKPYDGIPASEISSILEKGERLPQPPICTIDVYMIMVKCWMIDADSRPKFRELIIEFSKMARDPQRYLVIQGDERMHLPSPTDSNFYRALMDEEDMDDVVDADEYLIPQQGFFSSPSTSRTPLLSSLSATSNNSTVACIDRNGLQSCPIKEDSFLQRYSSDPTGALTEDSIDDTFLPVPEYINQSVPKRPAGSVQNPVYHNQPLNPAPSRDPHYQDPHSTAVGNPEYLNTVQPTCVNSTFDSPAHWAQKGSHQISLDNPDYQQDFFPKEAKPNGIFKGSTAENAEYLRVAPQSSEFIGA
T2 sequence (P12931 2-536 limits assumed): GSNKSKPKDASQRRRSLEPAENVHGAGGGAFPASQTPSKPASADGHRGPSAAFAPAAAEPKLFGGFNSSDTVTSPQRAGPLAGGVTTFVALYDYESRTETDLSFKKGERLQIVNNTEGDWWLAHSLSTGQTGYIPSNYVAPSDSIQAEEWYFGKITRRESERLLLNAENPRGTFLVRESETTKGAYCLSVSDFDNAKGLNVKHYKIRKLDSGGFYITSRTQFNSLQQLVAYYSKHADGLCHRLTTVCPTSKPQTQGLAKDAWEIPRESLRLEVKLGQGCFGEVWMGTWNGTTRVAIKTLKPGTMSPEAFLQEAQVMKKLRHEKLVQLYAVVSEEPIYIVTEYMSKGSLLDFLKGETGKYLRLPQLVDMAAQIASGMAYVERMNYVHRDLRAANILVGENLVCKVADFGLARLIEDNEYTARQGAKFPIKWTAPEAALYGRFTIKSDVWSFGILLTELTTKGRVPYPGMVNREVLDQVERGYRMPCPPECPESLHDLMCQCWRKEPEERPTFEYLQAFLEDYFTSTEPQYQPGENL

SMILES: CNC(=O)c1c([Se][Se]c2c(C(=O)NC)c3ccccc3n2C)n(C)c2ccccc12
IC50 [1]: 0.4 µM

SMILES: CCN(CC)CCn1c([Se][Se]c2c(C(=O)NC)c3ccccc3n2CCN(CC)CC)c(C(=O)NC)c2ccccc21
IC50 [1]: 1.7 µM

SMILES: Cn1c([Se][Se]c2c(C(=O)OC(C)(C)C)c3ccccc3n2C)c(C(=O)OC(C)(C)C)c2ccccc21
IC50 [1]: 1.5 µM

SMILES: CNC(=O)c1c(SSc2c(C(=O)NC)c3ccccc3n2C)n(C)c2ccccc12
IC50 [1]: 6 µM

SMILES: CN(C)CCNc1ncnc2c1[nH]c1ccccc12
IC50 [5]: > 10 µM

SMILES: COc1ccccc1-c1nc2c(c3c1[nH]c1ccc(OCc4ccccc4)cc13)C(=O)NC2=O
IC50 [4]: > 30 µM

SMILES: NC(Cc1c([Se][Se]c2[nH]c3ccccc3c2CC(N)C(=O)NCc2ccccc2)[nH]c2ccccc12)C(=O)NCc1ccccc1 (stereo unspecified)
IC50 [1]: 2 µM

SMILES: CN(C)CCNC(=O)c1c([Se][Se]c2c(C(=O)NCCN(C)C)c3ccccc3n2C)n(C)c2ccccc12
IC50 [1]: 1.8 µM

SMILES: O=C1/C(=N\c2ccc(Cl)cc2)c2ccccc2N1Cc1ccccc1
IC50 [7]: 106 µM

SMILES: COc1ccccc1-c1nc2c(c3c1[nH]c1ccc(O)cc13)C(=O)NC2=O
IC50 [4]: 10 µM

SMILES: O=C1NC(=O)c2c1nc(-c1ccccc1)c1[nH]c3ccccc3c21
IC50 [4]: > 30 µM

SMILES: COc1cc2[nH]c3c(-c4ccccc4)nc4c(c3c2cc1OC)C(=O)NC4=O
IC50 [4]: 1 µM

SMILES: Cc1ccc2c(C(=O)Nc3ccccc3)c(SSc3c(C(=O)Nc4ccccc4)c4ccc(C)cc4n3C)n(C)c2c1
IC50 [8]: > 100 µM

SMILES: O=C(c1cc2ccccc2s1)c1cc2ccccc2s1
IC50 [3]: > 30 µM

SMILES: COCC(=O)Oc1ccc2[nH]c(C(=O)c3cc4ccccc4[nH]3)cc2c1
IC50 [3]: 0.2 µM

Second part, led by results:

IC50 [2]: 0.85 µM
SMILES: O=C(CCc1c(SSc2[nH]c3ccccc3c2CCC(=O)Nc2ccccc2)[nH]c2ccccc12)Nc1ccccc1

IC50 [1]: 7 µM
SMILES: NC(Cc1c(SSc2[nH]c3ccccc3c2CC(N)C(=O)NCc2ccccc2)[nH]c2ccccc12)C(=O)NCc1ccccc1 (stereo unspecified)

IC50 [3]: > 30 µM
SMILES: COc1cccc2cc(C(=O)c3cc4ccccc4[nH]3)[nH]c12

IC50 (HeLa): 6.81 µM | IC50 (A549): 4.99 µM | IC50 (SW480): 13.1 µM
SMILES: CCn1c(C)c(C(=O)NCc2ccc(F)cc2)c2cc(OCC(=O)NCCOc3ccccc3OC)ccc21

IC50 [4]: > 30 µM
SMILES: Cc1ccccc1-c1nc2c(c3c1[nH]c1ccc(O)cc13)C(=O)NC2=O

IC50 [4]: 1 µM
SMILES: COc1cc2[nH]c3c(-c4ccccc4C)nc4c(c3c2cc1OC)C(=O)NC4=O

IC50 [6]: 1.34 µM
SMILES: O=C(OCCN1CCCCC1)c1cc2ccccc2n1Cc1ccccc1

IC50 [5]: > 10 µM
SMILES: c1ccc2c(c1)[nH]c1c(NC3CCCCC3)ncnc12

IC50 [4]: > 30 µM
SMILES: COc1ccc2[nH]c3c(-c4ccccc4)nc4c(c3c2c1)C(=O)N(C)C4=O

IC50 [3]: 0.1 µM
SMILES: CN(C)CCC(=O)Oc1ccc2[nH]c(C(=O)c3cc4ccccc4[nH]3)cc2c1

IC50 [8]: > 100 µM
SMILES: Cn1c(SSc2c(C(=O)Nc3ccccc3)c3c(O)cccc3n2C)c(C(=O)Nc2ccccc2)c2c(O)cccc21
IC50 at 72 h [9]: 1.9 µM

IC50 [4]: > 30 µM
SMILES: Cc1ccccc1-c1nc2c(c3c1[nH]c1ccc(OCc4ccccc4)cc13)C(=O)NC2=O

IC50 [4]: 3 µM
SMILES: COc1ccc2[nH]c3c(-c4ccccc4)nc4c(c3c2c1)C(=O)NC4=O

IC50 [8]: > 100 µM
SMILES: Cc1ccc2c(c1)c(C(=O)Nc1ccccc1)c(SSc1c(C(=O)Nc3ccccc3)c3cc(C)ccc3n1C)n2C

IC50 [3]: 7.5 µM
SMILES: Cc1ccc2[nH]c(C(=O)c3cc4ccccc4[nH]3)cc2c1

IC50 [3]: 0.3 µM
SMILES: COc1ccc2[nH]c(C(=O)c3cc4ccccc4[nH]3)cc2c1

IC50 [3]: 0.3 µM
SMILES: COc1ccc2cc(C(=O)c3cc4ccccc4[nH]3)[nH]c2c1

IC50 [3]: 0.2 µM
SMILES: O=C(c1cc2ccccc2[nH]1)c1cc2cc(O)ccc2[nH]1
